Reference: patent publication US9632088B2, “Methods and compositions for gamma-secretase assay” (MEMORIAL SLOAN-KETTERING CANCER CENTER, priority 2010, dated 2017)

Target: T1, γ-secretase (Homo sapiens, UniProt P49768)
T1 construct: endogenous in cells; host or cells: HEK293 cells transiently transfected with myc-tagged N1-ΔE (substrate only)
Assay: 1536-well format ALPHA-based γ-secretase assay, control validation
Type: biochemical
Settings: low control: 250 nM Compound E, 1% DMSO, full 1536-well plate
Protocol: Based on the 384-well assay format described above, to the assay was miniaturized to a 1536-well format for automated high-throughput drug screening. Concentrations of SM320, protein A conjugated acceptor beads and streptavidin conjugated donor beads were titrated to minimize reagent usage. […] The assay was validated by comparing the high and low control signals from full 1536-well plates. The high controls contained 1% final DMSO concentration (v/v), while the low controls contains 250 nM of Compound E also at 1% final DMSO concentration (v/v).

With `CC(NC(=O)Cc1cc(F)cc(F)c1)C(=O)NC1N=C(c2ccccc2)c2ccccc2N(C)C1=O` (stereo not shown) [Compound E] the “Average (ALPHA signal)” value was 319.
